These results are taken from ChEMBL document CHEMBL3864190, “Discovery of Pyrazolopyrimidine Derivatives as Novel Dual Inhibitors of BTK and PI3Kδ” (ACS Med Chem Lett, 2016).

SMILES strings stand for the structures. pIC50: −log10 of the molar value.

Series [1] addresses T1, Phosphatidylinositol 4,5-bisphosphate 3-kinase catalytic subunit delta isoform (Homo sapiens) (UniProt O00329).
T1 sequence (whole entry): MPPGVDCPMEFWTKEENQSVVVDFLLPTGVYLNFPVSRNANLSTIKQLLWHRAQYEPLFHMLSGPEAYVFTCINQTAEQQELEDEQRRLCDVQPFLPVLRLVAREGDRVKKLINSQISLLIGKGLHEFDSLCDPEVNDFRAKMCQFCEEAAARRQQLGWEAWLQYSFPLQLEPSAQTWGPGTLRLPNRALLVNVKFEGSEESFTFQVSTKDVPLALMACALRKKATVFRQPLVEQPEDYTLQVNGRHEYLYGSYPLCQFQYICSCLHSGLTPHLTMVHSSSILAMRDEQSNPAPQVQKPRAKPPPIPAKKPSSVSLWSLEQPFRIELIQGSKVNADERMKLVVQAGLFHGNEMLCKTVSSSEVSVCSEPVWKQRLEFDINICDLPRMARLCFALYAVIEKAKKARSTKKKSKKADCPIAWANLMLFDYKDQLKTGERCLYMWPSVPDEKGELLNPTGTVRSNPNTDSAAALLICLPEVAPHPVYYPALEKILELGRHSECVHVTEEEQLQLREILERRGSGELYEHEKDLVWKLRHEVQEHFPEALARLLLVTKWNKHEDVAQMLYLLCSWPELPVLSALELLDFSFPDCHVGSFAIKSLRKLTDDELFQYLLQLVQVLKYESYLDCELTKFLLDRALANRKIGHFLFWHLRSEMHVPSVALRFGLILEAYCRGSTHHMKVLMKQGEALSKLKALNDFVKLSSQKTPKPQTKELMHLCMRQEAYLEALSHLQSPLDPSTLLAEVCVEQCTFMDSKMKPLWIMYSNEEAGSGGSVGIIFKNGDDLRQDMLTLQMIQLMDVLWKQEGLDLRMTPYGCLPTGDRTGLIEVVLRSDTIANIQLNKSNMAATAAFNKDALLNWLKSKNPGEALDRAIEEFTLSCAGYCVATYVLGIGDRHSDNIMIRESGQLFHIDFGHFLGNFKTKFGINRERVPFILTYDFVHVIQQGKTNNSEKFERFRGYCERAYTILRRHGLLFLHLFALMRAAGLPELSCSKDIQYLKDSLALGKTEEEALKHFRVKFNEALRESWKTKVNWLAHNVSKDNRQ
The series is described as follows: Inhibition of PI3Kdelta (unknown origin) using biotinylated PIP2 as substrate at 100 nM in presence of streptavidin-APC by FRET assay.

Series [2] addresses T2, Tyrosine-protein kinase BTK (Homo sapiens, UniProt Q06187). The conditions noted are these: at 100 nM.
A short description of series [3]: Drug metabolism in mouse liver microsomes assessed as UGT-mediated compound glucuronidation by measuring parent compound remaining at 5 uM after 30 mins in presence of UDPGA by LC-MS/MS analysis. As to conditions: liver microsomes, read-out: Stability. Type of series: ADME.
Series [4] concerns the target T2, Tyrosine-protein kinase BTK.
Series [5] addresses T3, Phosphatidylinositol 4,5-bisphosphate 3-kinase catalytic subunit delta isoform (Homo sapiens, UniProt O00329).
T3 sequence (O00329 whole entry): T1 sequence (whole entry)
The series is described as follows: Inhibition of PI3Kdelta (unknown origin) using biotinylated PIP2 as substrate in presence of streptavidin-APC by FRET assay.

The nature of series [6]: Clearance in mouse plasma at 5 mg/kg, iv or 15 mg/kg, po by HPLC/MS analysis. The series is classed as ADME, organism-based.
Series [7] in a line: Oral bioavailability in mouse plasma at 15 mg/kg by HPLC/MS analysis. Type of series: ADME, organism-based.
Series [8] in a line: Half life in mouse plasma at 15 mg/kg, po by HPLC/MS analysis. Type of series: ADME, organism-based.
Series [9] can be described thus: AUC in mouse plasma at 15 mg/kg, po by HPLC/MS analysis. The series is classed as ADME, organism-based.
Series [10] can be described thus: Apparent volume of distribution in mouse plasma at 5 mg/kg, iv or 15 mg/kg, po by HPLC/MS analysis. Type of series: ADME, organism-based. The conditions noted are these: read-out: Vz.

T2 sequence (Q06187 whole entry): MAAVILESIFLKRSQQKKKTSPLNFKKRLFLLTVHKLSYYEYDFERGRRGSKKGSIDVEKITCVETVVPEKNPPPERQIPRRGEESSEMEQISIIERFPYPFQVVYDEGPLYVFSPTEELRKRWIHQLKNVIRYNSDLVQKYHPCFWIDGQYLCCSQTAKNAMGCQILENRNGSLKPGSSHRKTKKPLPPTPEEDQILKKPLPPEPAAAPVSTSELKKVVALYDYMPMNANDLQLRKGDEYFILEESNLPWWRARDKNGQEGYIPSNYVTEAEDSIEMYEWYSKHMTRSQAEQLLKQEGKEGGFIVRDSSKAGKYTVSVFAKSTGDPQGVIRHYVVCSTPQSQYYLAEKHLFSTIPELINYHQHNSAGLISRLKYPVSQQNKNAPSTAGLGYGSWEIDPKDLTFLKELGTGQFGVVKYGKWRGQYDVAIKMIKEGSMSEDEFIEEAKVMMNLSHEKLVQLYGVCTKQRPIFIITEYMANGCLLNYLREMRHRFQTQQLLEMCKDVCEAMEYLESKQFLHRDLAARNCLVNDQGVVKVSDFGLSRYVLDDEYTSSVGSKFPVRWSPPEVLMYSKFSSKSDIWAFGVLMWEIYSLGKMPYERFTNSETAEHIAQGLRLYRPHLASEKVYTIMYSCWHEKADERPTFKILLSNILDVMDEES

Take `Nc1ncnc2c1c(-c1ccc3c(c1)NCCO3)nn2C1Cc2ccccc2C1`: the inhibition in series [1] stood at 40%; in [2], 57%. Further, in series [3], the remaining at 0.5 h, 5 µM amounted to 98%.

`Cc1ccccc1-n1c(Cn2nc(-c3cc(O)cc(F)c3)c3c(N)ncnc32)nc2cccc(C)c2c1=O` gave a pIC50 in series [4] of less than 5.00.

For `Nc1ncnc2c1c(-c1ccc3cc[nH]c3c1)nn2C1Cc2ccccc2C1`, the inhibition was determined as 24% in series [1] and 46% in [2].

Regarding `Nc1cc(-c2nn(C3Cc4ccccc4C3)c3ncnc(N)c23)ccc1F`, the inhibition turned out to be 8.2% in series [1] and 79% in [2]. In addition, the remaining at 0.5 h, 5 µM in series [3] came to 92%.

With `Cc1ccc(-c2nn(C3Cc4ccccc4C3)c3ncnc(N)c23)cc1O`, the pIC50 is 6.76 in [5] and 7.37 in series [4].

For `Nc1ncnc2c1c(-c1cc(F)c3c(c1)NCCO3)nn2C1CCc2ccccc2C1` (racemic), the inhibition stood at 52% in series [1] and 34% in series [2].

Regarding `Nc1ncnc2c1c(-c1ccc(Cl)c(O)c1)nn2C1Cc2ccccc2C1`, the pIC50 in series [4] is 7.85.

As for `Nc1ncnc2c1c(-c1cc(O)cc(Cl)c1)nn2C1Cc2ccccc2C1`, the clearance in series [6] was 156 mL/min/kg. This molecule also yielded a bioavailability in series [7] of 0.8%. Besides, in series [8], the half-life was 36 min. In [9], this molecule displayed an AUC of 0.033 µM·h. Besides, in series [5], the pIC50 is 8.40. In addition, the Vd in series [10] turned out to be 11.5 L/kg.

Turning to `Nc1cc(-c2nn(C3Cc4ccccc4C3)c3ncnc(N)c23)cc(F)c1F`, the figures for the inhibition in series [1] and in [2] were 26% and 63%, respectively. In addition, the remaining at 0.5 h, 5 µM in series [3] worked out at 97%.

As to `Nc1ncnc2c1c(-c1cc(F)c(F)c(F)c1)nn2C1Cc2ccccc2C1`, the inhibition in series [1] and in series [2] was 21% in each case. Further, in series [3], the remaining at 0.5 h, 5 µM was determined as 85%.

Take `COc1ccc(-c2nn(C3Cc4ccccc4C3)c3ncnc(N)c23)cc1N`: the values for the inhibition in series [1] and in [2] were 14% and 72%, respectively. Further, the remaining at 0.5 h, 5 µM in [3] was 89%.

As to `Nc1ncnc2c1c(-c1cc(F)c3c(c1)NCCO3)nn2C1Cc2ccccc2C1`, the inhibition in series [1] turned out to be 53%; in series [2], 52%. In addition, in [3], the remaining at 0.5 h, 5 µM was found to be 91%.

On to `Nc1ccc2c(c1)CC(n1nc(-c3cc(F)c4c(c3)NCCO4)c3c(N)ncnc31)CC2` (single isomer, unassigned; (-)), for which the negative logarithm of the IC50 (pIC50) is 7.14 in [5] and 7.72 in [4].

As for `Nc1ncnc2c1c(-c1cccc(O)c1)nn2C1Cc2ccccc2C1`, the inhibition in series [1] is 41%; in [2], 66%.

With `Nc1ccc2c(c1)CC(n1nc(-c3cc(F)c4c(c3)NCCO4)c3c(N)ncnc31)CC2` (single isomer, unassigned; (+)), the pIC50 in series [5] was 7.26; in [4], 6.75.

For the molecule `Nc1ncnc2c1c(-c1ccc3[nH]cnc3c1)nn2C1Cc2ccccc2C1`, the remaining at 0.5 h, 5 µM in [3] was determined as 90%.

`Nc1ncnc2c1c(-c1ccc3nc[nH]c3c1)nn2C1Cc2ccccc2C1`: the results for the inhibition in series [1] and in series [2] were 78% and 9.6%, respectively.

On to `Nc1ncnc2c1c(-c1ccc(F)c(O)c1)nn2C1Cc2ccccc2C1`, for which the clearance in [6] is 122 mL/min/kg. The molecule further came in with a bioavailability in series [7] of 3.7%. The half-life in series [8] was 48 min. In series [9], this molecule registered an AUC of 0.211 µM·h. Moreover, the Vd in series [10] worked out at 5.45 L/kg.

In the case of `Nc1ncnc2c1c(-c1cc(F)c3c(c1)NCCO3)nn2C1Cc2cc(F)ccc2C1=O` (racemic), the inhibition in [1] turned out to be 26%; in series [2] it was 6.6%.
